Measured values as given in patent publication US10377774B2 (JINAN UNIVERSITY, priority 2013, dated 2019).
Marks after values point to notes of the source that are not given here.

How the values were obtained:
[1] = tested on: human non-small-cell lung cancer cell line A549; test: MTT cell growth inhibition, A549; format: cell-based; details: Homo sapiens; A549, MTT assay, 72 h; read-out: IC50, growth of tumor cell line
Description: (§3) Experimental method: Cell lines (human non-small-cell lung cancer cell line A549, human colon cancer cell line LOVO, human nasopharyngeal carcinoma cell line CNE-2, human liver cancer cell line HepG2, human cervical carcinoma cell line Hela, human breast cancer cell lines MCF-7 and MDA-MB-231, human gastric carcinoma cell line NCI-N87, human prostatic cancer cell lines PC-3 and DU145, human leukemia cell line K562, human melanoma cell line A375, human neuroblastoma cell line SH-SY5H, human promyelocytic leukemia cell line HL-60, 5-FU-resistant human hepatocellular carcinoma cell line BEL-7402/5-Fu, doxorubicin-resistant hepatocellular carcinoma cell line HepG2/ADM, doxorubicin-resistant human breast cancer cell lines MCF-7/ADR) at logarithmic phase were resuspended in RPMI 1640 medium (containing 10% fetal bovine serum, 100 U/mL penicillin-streptomycin). Then, 100 μL of cells (cell concentration was 5×10^5/mL) were seeded into 96 wells plate. After 24 h incubation at 37° C. with 5% CO2, tested compounds were added (the control group without compound) for an additional 72 h incubation. After that, 30 μL of MTT [3-(4,5-Dimethylthiazol-2-yl)-2,5-diphenyltetrazolium bromide] solution (5 mg/mL) was added into each well and incubated for another 4 h at 37° C. and then the formazan crystals were solubilized with 100 μL DMSO. Finally, absorbance of each well was determined at 570 nm by a microplate reader (Thermo).
(§4) The concentration required to inhibit cell growth by 50% (IC50) was calculated from survival curves.

[2] = tested on: human colon cancer cell line LOVO; test: MTT cell growth inhibition, LOVO; format: cell-based; details: Homo sapiens; LOVO (FAPα positive), MTT assay, 72 h; read-out: IC50, growth of tumor cell line
Description: as §3, §4

[3] = tested on: human nasopharyngeal carcinoma cell line CNE-2; test: MTT cell growth inhibition, CNE-2; format: cell-based; details: Homo sapiens; CNE-2, MTT assay, 72 h; read-out: IC50, growth of tumor cell line
[4] = tested on: human liver cancer cell line HepG2; test: MTT cell growth inhibition, HepG2; format: cell-based; details: Homo sapiens; HepG2, MTT assay, 72 h; read-out: IC50, growth of tumor cell line
Description: as §3, §4

[5] = tested on: human cervical carcinoma cell line Hela; test: MTT cell growth inhibition, Hela; format: cell-based; details: Homo sapiens, MTT assay, 72 h, read-out: IC50, growth of tumor cell line
Description: as §3, §4

[6] = tested on: human breast cancer cell line MCF-7; test: MTT cell growth inhibition, MCF-7; format: cell-based; details: Homo sapiens, MCF7; MCF-7, MTT assay, 72 h; read-out: IC50, growth of tumor cell line
Description: as §3, §4

[7] = tested on: human breast cancer cell line MDA-MB-231; test: MTT cell growth inhibition, MDA-MB-231; format: cell-based; details: Homo sapiens; MDA-MB-231, MTT assay, 72 h; read-out: IC50, growth of tumor cell line
Description: as §3, §4

[8] = tested on: human gastric carcinoma cell line NCI-N87; test: MTT cell growth inhibition, NCI-N87; format: cell-based; details: Homo sapiens; NCI-N87, MTT assay, 72 h; read-out: IC50, growth of tumor cell line
Description: as §3, §4

[9] = tested on: human prostatic cancer cell line PC-3; test: MTT cell growth inhibition, PC-3; format: cell-based; details: Homo sapiens; PC-3, MTT assay, 72 h; read-out: IC50, growth of tumor cell line
Description: as §3, §4

[10] = tested on: human prostatic cancer cell line DU145; test: MTT cell growth inhibition, DU-145; format: cell-based; details: Homo sapiens; DU-145, MTT assay, 72 h; read-out: IC50, growth of tumor cell line
Description: as §3, §4

[11] = tested on: human leukemia cell line K562; test: MTT cell growth inhibition, K562; format: cell-based; details: Homo sapiens; K562, MTT assay, 72 h; read-out: IC50, growth of tumor cell line
Description: as §3, §4

[12] = tested on: human melanoma cell line A375; test: MTT cell growth inhibition, A375; format: cell-based; details: Homo sapiens, A-375; A375, MTT assay, 72 h; read-out: IC50, growth of tumor cell line
Description: as §3, §4

[13] = tested on: human neuroblastoma cell line SH-SY5H; test: MTT cell growth inhibition, SH-SY5H; format: cell-based; details: Homo sapiens, Neuroblastoma cell, MTT assay, 72 h, read-out: IC50, growth of tumor cell line
Description: as §3, §4

[14] = tested on: human promyelocytic leukemia cell line HL-60; test: MTT cell growth inhibition, HL-60; format: cell-based; details: Homo sapiens; HL-60, MTT assay, 72 h; read-out: IC50, growth of tumor cell line
Description: as §3, §4

[15] = tested on: 5-FU-resistant human hepatocellular carcinoma cell line BEL-7402/5-Fu; test: MTT cell growth inhibition, BEL-7402/5-Fu; format: cell-based; details: Homo sapiens, Bel7402/5-FU, MTT assay, 72 h, read-out: IC50, growth of tumor cell line
[16] = tested on: doxorubicin-resistant hepatocellular carcinoma cell line HepG2/ADM; test: MTT cell growth inhibition, HepG2/ADM; format: cell-based, human; details: Homo sapiens, MTT assay, 72 h, read-out: IC50, growth of tumor cell line
Description: as §3, §4

[17] = tested on: doxorubicin-resistant human breast cancer cell lines MCF-7/ADR; test: MTT cell growth inhibition, MCF-7/ADR; format: cell-based; details: Homo sapiens, NCI/ADR-RES, MTT assay, 72 h, read-out: IC50, growth of tumor cell line
MDA-MB-231 xenografts = MDA-MB-231 xenografts in nude mice; format: in vivo, BALB/nu/nu mice; details: MDA-MB-231 xenograft nude mice; for Anti-tumor rate (%) / Body weight (g) Post-dose / Tumor weight: 1 mg/kg i.p. every two days, 8 administrations; for Body weight (g) Pre-dose: before dosing
Procedure: (§1) Experimental method: The MDA-MB-231 cells at logarithmic phase were digested and washed twice with PBS. Then, 100 μL cells (1×10^7) were inoculated subcutaneously on the backs of female BALB/nu/nu mice. After tumors grew to 70˜100 mm^3, the mice were divided randomly into saline group (control group), vinca alkaloids groups (VLB, CCRB, CCFN, CCXJ) and vinca alkaloid derivatives groups (JJ-CCJ, BX-CCJ, JJ-CCRB, BX-CCRB, JJ-CCFN, BX-CCFN, JJ-CCXJ and BX-CCXJ), with six mice per group. 1 mg/kg drugs were injected intraperitoneally every two days, meanwhile body weight and tumor sizes were measured. Experiment was ended after 8 times of drug administration, then tumor and organs were stripped. Tumor volumes were measured using the following formula: V=½(ab^2), whereas a refers to the longest diameter and b is the shortest diameter.

HepG2 xenografts = HepG2 xenografts in nude mice; format: in vivo; details: HepG2 xenograft nude mice; for Anti-tumor rate (%) / Body weight (g) Post-dose / Tumor weight: 1 mg/kg; for Body weight (g) Pre-dose: before dosing
Procedure: as §1
(§2) Tumor xenograft models of HepG2, LOVO, K562 and HL-60 cell lines were performed as the method described above.

LOVO xenografts = LOVO xenografts in nude mice; format: in vivo; details: LOVO xenograft nude mice; for Anti-tumor rate (%) / Body weight (g) Post-dose / Tumor weight: 1 mg/kg; for Body weight (g) Pre-dose: before dosing
Procedure: as §1, §2

K562 xenografts = K562 xenografts in nude mice; format: in vivo; details: K562 xenograft nude mice; for Anti-tumor rate (%) / Body weight (g) Post-dose / Tumor weight: 1 mg/kg; for Body weight (g) Pre-dose: before dosing
Procedure: as §1, §2

HL-60 xenografts = HL-60 xenografts in nude mice; format: in vivo; details: HL-60 xenograft nude mice; for Anti-tumor rate (%) / Body weight (g) Post-dose / Tumor weight: 1 mg/kg; for Body weight (g) Pre-dose: before dosing
Procedure: as §1, §2

SMILES	IC50 [1]	IC50 [2]	IC50 [3]	IC50 [4]	IC50 [5]	IC50 [6]	IC50 [7]	IC50 [8]	IC50 [9]	IC50 [10]	IC50 [11]	IC50 [12]	IC50 [13]	IC50 [14]	IC50 [15]	IC50 [16]	IC50 [17]	Anti-tumor rate (%) (MDA-MB-231 xenografts)	Body weight (g) Post-dose (MDA-MB-231 xenografts)	Tumor weight (MDA-MB-231 xenografts)	also measured
CC[C@]12C=CCN3CC[C@@]4(c5cc([C@@]6(C(=O)OC)C[C@@H]7C[C@@H](C(C)(F)F)CN(Cc8c6[nH]c6ccccc86)C7)c(OC)cc5N(C)[C@H]4[C@@](O)(C(=O)NN)[C@@H]1O)[C@@H]32 [JJ-CCFN, hydrazinolyzed vinflunine]	206 ± 6.79 nM	313 ± 7.64 nM	198 ± 7.71 nM	103 ± 6.37 nM	132 ± 6.67 nM	304 ± 9.44 nM	333 ± 12.5 nM	133 ± 6.7 nM	98.3 ± 3.19 nM	90.8 ± 5.45 nM	55.9 ± 7.59 nM	132 ± 9.51 nM	159 ± 20.4 nM	198 ± 19.5 nM	166 ± 5.77 nM	277 ± 9.67 nM	713 ± 25.6 nM	75.10** %	16.3 ± 0.7 g	0.65 ± 0.13 g	Body weight (g) Pre-dose (MDA-MB-231 xenografts): 19.7 ± 2.1 g; Anti-tumor rate (%) (HepG2 xenografts): 75.69** %; Body weight (g) Post-dose (HepG2 xenografts): 16.5 ± 0.4 g; Tumor weight (HepG2 xenografts): 0.62 ± 0.19 g; Body weight (g) Pre-dose (HepG2 xenografts): 22.3 ± 1.7 g; Anti-tumor rate (%) (LOVO xenografts): 76.31** %; Body weight (g) Post-dose (LOVO xenografts): 18.9 ± 2.1 g; Tumor weight (LOVO xenografts): 0.68 ± 0.13 g; Body weight (g) Pre-dose (LOVO xenografts): 22.7 ± 1.5 g; Anti-tumor rate (%) (K562 xenografts): 57.74** %; Body weight (g) Post-dose (K562 xenografts): 17.4 ± 0.9 g; Tumor weight (K562 xenografts): 0.71 ± 0.21 g; Body weight (g) Pre-dose (K562 xenografts): 21.5 ± 2.1 g; Anti-tumor rate (%) (HL-60 xenografts): 60.10** %; Body weight (g) Post-dose (HL-60 xenografts): 17.3 ± 0.1 g; Tumor weight (HL-60 xenografts): 0.83 ± 0.13 g; Body weight (g) Pre-dose (HL-60 xenografts): 19.2 ± 1.9 g
CCC1=C[C@@H]2CN(C1)Cc1c([nH]c3ccccc13)[C@@](C(=O)OC)(c1cc3c(cc1OC)N(C)[C@H]1[C@@](O)(C(=O)NN)[C@H](O)[C@]4(CC)C=CCN5CC[C@]31[C@@H]54)C2 [JJ-CCRB, hydrazinolyzed vinorelbine]	73.1 ± 2.36 nM	121 ± 10.3 nM	100 ± 5.9 nM	89.31 ± 0.71 nM	61.3 ± 3.12 nM	122 ± 5.75 nM	101 ± 7.65 nM	89 ± 3.34 nM	65.9 ± 3.05 nM	60.4 ± 7.01 nM	49.7 ± 3.39 nM	20.4 ± 2.85 nM	32.9 ± 3.27 nM	46.8 ± 5.41 nM	143 ± 8.57 nM	182 ± 4.38 nM		77.39** %	16.7 ± 1.4 g	0.59 ± 0.18 g	Body weight (g) Pre-dose (MDA-MB-231 xenografts): 21.0 ± 2.7 g; Anti-tumor rate (%) (HepG2 xenografts): 75.29** %; Body weight (g) Post-dose (HepG2 xenografts): 17.0 ± 0.8 g; Tumor weight (HepG2 xenografts): 0.63 ± 0.29 g; Body weight (g) Pre-dose (HepG2 xenografts): 21.9 ± 1.6 g; Anti-tumor rate (%) (LOVO xenografts): 69.69** %; Body weight (g) Post-dose (LOVO xenografts): 16.4 ± 0.7 g; Tumor weight (LOVO xenografts): 0.87 ± 0.16 g; Body weight (g) Pre-dose (LOVO xenografts): 23.2 ± 2.1 g; Anti-tumor rate (%) (K562 xenografts): 59.52** %; Body weight (g) Post-dose (K562 xenografts): 18.2 ± 0.5 g; Tumor weight (K562 xenografts): 0.68 ± 0.20 g; Body weight (g) Pre-dose (K562 xenografts): 21.8 ± 1.4 g; Anti-tumor rate (%) (HL-60 xenografts): 65.38** %; Body weight (g) Post-dose (HL-60 xenografts): 17.1 ± 0.3 g; Tumor weight (HL-60 xenografts): 0.72 ± 0.21 g; Body weight (g) Pre-dose (HL-60 xenografts): 19.5 ± 1.3 g
CC[C@]12C=CCN3CC[C@@]4(c5cc([C@@]6(C(=O)OC)C[C@@H]7C[C@@H](C(C)(F)F)CN(Cc8c6[nH]c6ccccc86)C7)c(OC)cc5N(C)[C@H]4[C@@](O)(C(=O)OC)[C@@H]1OC(C)=O)[C@@H]32 [Vinflunine, reference compound]	137 ± 4.1 nM	146 ± 7.21 nM	67.4 ± 3.42 nM	32.1 ± 2.17 nM	56.7 ± 4.47 nM	77 ± 2.74 nM	61.3 ± 7.44 nM	57.5 ± 3.95 nM	31.1 ± 5.34 nM	22.3 ± 1.67 nM	19.3 ± 2.48 nM	39.8 ± 5.29 nM	52.4 ± 6.81 nM	41.8 ± 6.85 nM	45.7 ± 3.98 nM	67.1 ± 4.39 nM	154 ± 3.95 nM				
